The values that follow come from US20110009437A1, “CARBOXAMIDE-HETEROARYL DERIVATIVES FOR THE TREATMENT OF DIABETES” (MERCK PATENT GESELLSCHAFT MIT BESCHRANKTER HAFTUNG, priority 2008, published 2011).

The target in this experiment is T1, Glucokinase (Homo sapiens, UniProt P35557).
T1 sequence (P35557 1-465): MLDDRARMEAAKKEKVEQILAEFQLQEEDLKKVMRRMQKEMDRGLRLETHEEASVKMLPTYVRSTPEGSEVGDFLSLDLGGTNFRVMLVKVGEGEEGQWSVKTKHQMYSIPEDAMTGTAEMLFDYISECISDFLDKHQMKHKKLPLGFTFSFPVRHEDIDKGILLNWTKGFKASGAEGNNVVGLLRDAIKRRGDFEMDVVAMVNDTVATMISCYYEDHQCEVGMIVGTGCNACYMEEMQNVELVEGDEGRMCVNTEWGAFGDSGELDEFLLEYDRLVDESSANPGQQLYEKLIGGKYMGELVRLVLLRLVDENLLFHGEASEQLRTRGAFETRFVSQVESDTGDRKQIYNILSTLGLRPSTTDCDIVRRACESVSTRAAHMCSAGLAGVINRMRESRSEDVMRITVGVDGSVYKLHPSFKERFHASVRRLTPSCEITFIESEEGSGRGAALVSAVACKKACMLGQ
Put plainly: Glucokinase Activation Screening Assay (coupled enzyme assay with PK/LDH). Format: biochemical. The conditions noted are these: human GK enzyme. The protocol: GK activity (human or rat enzyme) is measured by a coupled enzyme assay using pyruvate kinase (PK) and lactate dehydrogenase (LDH) as coupling enzymes. GK activity is calculated from the decline in NADH monitored photometrically with a microtiter plate (MTP) reader at 340 nm. For screening purposes, the GK assay is routinely run in a 384-MTP format, in a total volume of 33 μl/well. 10 μl of the ATP-regeneration solution (in HEPES-buffer*, pH 7.0, 6.73 U/ml pyruvate kinase, 6.8 U/ml lactate dehydrogenase) and 10 μl of the glucokinase-/glucose solution (15 μg/ml, 6.6 mM glucose in HEPES-buffer*, pH 7.0; the concentration of the glucose stock-solution was 660 mM in Millipore H2O) were mixed together with […] of a 10% DMSO solution (in HEPES-buffer*, pH 7.0) containing 3.3-fold the amounts of the compounds to achieve final compound concentrations in the range between 1 nM to 30 μM (sometimes 300 μM) in the assay solution (s. below). The solutions were mixed for 5 sec, and after a centrifugation at 243×g for 5 min, the solutions were preincubated for 25 min at room temperature.
The reaction was started by the addition of 10 μl of the NADH-/ATP-solution (4.29 mM NADH, 4.95 mM ATP, in HEPES-buffer*). The MTP was shaken for 5 sec., and then, the absorbance at 340 nm was monitored continuously in a MTP-reader (TECAN Spectro fluor plus) for the next 27 min (with a MTP-cycling time of 199 sec.). The final concentrations of the various components were as follows: 49.5 mM Hepes, pH 7.0, 1.49 mM PEP,1,3 mM NADH, 49.5 mM KCl, 4.96 mM MgCl2, 1.5 mM Mg-ATP, 1.98 mM DTT, 2.04 U/ml pyruvate kinase, 2.06 U/ml lactate-dehydrogenase, 0.91% DMSO, 0.15 μg/well glucokinase, and test compounds in the range between 1 nM and […] The change in the optical density (ΔOD340 nm) in the presence of the compound was expressed relative to the ΔOD340 nm, ctrl of the control incubation (in the presence of 2 mM glucose and 0.91% DMSO), taking into account the optical density of the blank sample (incubation in the absence of 2 mM glucose). For the determination of the half maximal effective concentration (EC50), the %-Ctrl-values were plotted in a semi-logarithmic graph against the conc. of the compound of interest. The data points were fitted to a sigmoid curve function (f(x)=((%-Ctrlmax−%-Ctrlmin)/(1−(EC50/x**^n(Hill)))+%-Ctrlmin)) by a non-linear regression analysis.
*Hepes-buffer (50 mM Hepes, pH 7.0, 5 mM MgCl2, 50 mM KCl, 1.5 mM PEP, 0.1% BSA). DTT was added to the Hepes-buffer from a 200× stock solution (in Millipore H2O) freshly each day. The final concentration of DTT in the Hepes-buffer is 2 mM.

`COCC(C)Oc1cc(OC(C)COC)nc(C(=O)Nc2ccn(C)n2)n1` (stereo not drawn) [B7, 4,6-Bis-(2-methoxy-1-methyl-ethoxy)-pyrimidine-2-carboxylic acid (1-methyl-1H-pyrazol-3-yl)-amide]: the “fold activation (human)” value is on record as 1.3 fold.

Regarding `CN(Cc1ccccc1)c1cc(C(=O)Nc2ccn(C)n2)cc(Oc2ccccc2)n1` [B8, 2-(Benzyl-methyl-amino)-N-(1-methyl-1H-pyrazol-3-yl)-6-phenoxy-isonicotinamide], the “fold activation (human)” value worked out at 1.4 fold.

As to `COCCN(C)c1cc(C(=O)Nc2ccn(Cc3cccnc3)n2)cc(Oc2ccccc2)n1` [B4, 2-[(2-Methoxy-ethyl)-methyl-amino]-6-phenoxy-N-(1-pyridin-3-ylmethyl-1H-pyrazol-3-yl)-isonicotinamide], the “fold activation (human)” value was 1.8 fold.

Regarding `Cn1ccc(NC(=O)c2cc(Cl)nc(Oc3ccccc3)c2)n1` [B5, 2-Chloro-N-(1-methyl-1H-pyrazol-3-yl)-6-phenoxy-isonicotinamide], the “fold activation (human)” value came out at 1.3 fold.

In the case of `CN(C)c1cc(C(=O)Nc2ccn(Cc3cccnc3)n2)cc(Oc2ccccc2)n1` [B2, 2-Dimethylamino-6-phenoxy-N-(1-pyridin-3-ylmethyl-1H-pyrazol-3-yl)-isonicotinamide], the “fold activation (human)” value worked out at 3.3 fold.

Regarding `COCCN(C)c1cc(C(=O)Nc2ccn(C)n2)cc(Oc2ccccc2)n1` [B6, 2-[(2-Methoxy-ethyl)-methyl-amino]-N-(1-methyl-1H-pyrazol-3-yl)-6-phenoxy-isonicotinamide], the “fold activation (human)” value worked out at 3.4 fold.
